Test [1] relates to Lee aptamer (56-mer) (DNA, aptamer) AGCAGCACAGAGGTCATGGGGGGTGTGACTTTGGTGTGCCTATGCGTGCTACGGAA
In words: AuNP aggregation colorimetry (A650/A525), centrifugation and resuspension. The following applies: 100 mM NaCl (Na+), added after target incubation, water, 5% ethanol in target solution, room temperature; for binding: tested at 600 nM.

For test [2], the system named is Random ssDNA (70-mer) (DNA, single strand) AGGCCTAAGGGCATAATTAGCTCGAGCTCGAAAGGGGTTATATGATGATTTGAATTCATGGGGCCCGACT
The test is described as above. The following applies: 100 mM NaCl (Na+), added after target incubation; water, 5% ethanol in target solution, room temperature; control; VTD3 series in Figures 2C and 3B.

Consider `C=C1CC[C@H](O)C/C1=C/C=C1\CCC[C@]2(C)[C@@H]([C@H](C)/C=C/[C@H](C)C(C)C)CC[C@@H]12`, for which, in test [1] (concentration series in Figure 2C), the binding result was “no”.

On to `C=C1CC[C@H](O)C/C1=C/C=C1\CCC[C@]2(C)[C@@H]([C@H](C)CCCC(C)C)CC[C@@H]12`, for which the “Kd, app” value in test [1] (10 min, apparent, Langmuir fit, aptamer adsorbed on AuNP) stood at 220 nM. Further, the binding entry in test [2] is recorded as “no”.

As to `CC(=O)[C@H]1CC[C@H]2[C@@H]3CCC4=CC(=O)CC[C@]4(C)[C@H]3CC[C@]12C`, in test [1], the binding result is “no”.

Consider `C[C@]12C=CC(=O)C=C1CC[C@@H]1[C@@H]2C(=O)C[C@@]2(C)[C@H]1CC[C@]2(O)C(=O)CO`, for which, in test [1], the binding entry is recorded as “no”.

Turning to `C[C@]12CC[C@@H]3c4ccc(O)cc4CC[C@H]3[C@@H]1CC[C@@H]2O`, the binding entry in test [1] is listed as “no”.

These data come from article PMC6113223 (2018).
